Assay results taken from US20070004660A1, “Synergistic Modulation of Flt3 Kinase Using Alkylquinolines and Alkylquinazolines” (priority 2005, published 2007).

Tests used:
Baf3-ITD cells = experiment: Cell proliferation assay, single agents and FTI/FLT3 inhibitor combinations, Baf3-ITD; assay type: cell-based, murine; details: with single sub-IC50 dose of FLT3 inhibitor Compound A, 50 nM
Procedure: (§1) The cell lines that were tested included those that are dependent on FLT3ITD mutant activity for growth (MV4-11 and Baf3-FLT3ITD), FLT3wt activity for growth (Baf3FLT3) and those that grow independent of FLT3 activity (THP-1). […] Baf3-FLT3 and Baf3-FLT3ITD cell lines were obtained from Dr. Michael Henrich and the Oregon Health Sciences University. The Baf3 FLT3 cell lines were created by stable transfection of parental Baf3 cells (a murine B cell lymphoma line dependent on the cytokine IL-3 for growth) with either wild-type FLT3 or FLT3 containing the ITD insertion in the juxatamembrane domain of the receptor resulting in its constitutive activation. […]
(§2) To statistically evaluate the synergy of a FLT3 inhibitor and an FTI in FLT3 dependent cell lines, dosing combinations were evaluated by the method of Chou and Talalay. See Chou T C, Talalay P. (1984) “Quantitative analysis of dose-effect relationships: the combined effects of multiple drugs or enzyme inhibitors.” Adv Enzyme Regul. […] Using this method, multiple FTI and FLT3 combinations were evaluated. […]
(§3) Cell proliferation assay for MV4-11, Baf3-ITD, Baf3-FLT3 and THP-1 cells. […] Total cell growth is quantified as the difference in luminescent counts (relative light units, RLU) of cell number at Day 0 compared to total cell number at Day 3 (72 hours of growth and/or compound treatment). […]

MV4-11 AML cells = experiment: Cell proliferation assay, single agents and FTI/FLT3 inhibitor combinations, MV4-11; assay type: cell-based, human
Procedure: Dose responses for the individual compounds alone were determined for each cell line using a standard 72-hour cell proliferation assay (see FIGS. 6.1-6.8). The standard chemotherapeutic agent Cytarabine was used as a control cytotoxic agent in all experiments. […] The FLT3 inhibitors, Compounds A, B, C, D, E, F G and H individually have good potency (sub-micromolar) for the inhibition of FLT3 driven proliferation (compared to the first line cytotoxic agent Cytarabine and Tipifarnib) in cells that depend on FLT3 for growth. Each of these chemically distinct compounds alone has potential for the treatment of disorders related to FLT3, such as FLT3 positive AML. […] The FLT3 inhibitors tested had no effect on THP-1 proliferation. […] (See FIGS. 10.1-10.8 and Tables 1-3, hereafter.)
To statistically evaluate the synergy of a FLT3 inhibitor and an FTI in FLT3 dependent cell lines, dosing combinations were evaluated by the method of Chou and Talalay. See Chou T C, Talalay P. (1984) “Quantitative analysis of dose-effect relationships: the combined effects of multiple drugs or enzyme inhibitors.” Adv Enzyme Regul. 22:27-55. […] Using this method, multiple FTI and FLT3 combinations were evaluated. […]
as §3, with “treatment). One hundred percent inhibition of growth is defined as an RLU equivalent to the Day 0 reading.” for “treatment).”
Combination Index Analysis. To determine growth inhibition synergy of a FTI and FLT3 inhibitor combination based on the method of Chou and Talalay (Chou and Talalay. See Chou T C, Talalay P. (1984) “Quantitative analysis of dose-effect relationships: the combined effects of multiple drugs or enzyme inhibitors.” Adv Enzyme Regul. 22:27-55. ), fixed ratio combination dosing with isobolar statistical analysis was performed. […]

MV-4-11 tumor xenografts = tested on: MV-4-11 tumor xenografts
Text: Dosing was continued for sixteen consecutive days.
Values represent the mean (±sem) of 10 mice per treatment group.

Baf3-FLT3 cells = experiment: Cell proliferation assay, single agents and FTI/FLT3 inhibitor combinations, Baf3-FLT3; assay type: cell-based, murine; details: with single sub-IC50 dose of FLT3 inhibitor Compound A, 100 nM
Procedure: as §1, §2, §3

Q: Which “increase in potency of Tipifarnib” value (Baf3-ITD cells) does the source give for `Cn1cncc1C(N)(c1ccc(Cl)cc1)c1ccc2c(c1)c(-c1cccc(Cl)c1)cc(=O)n2C` (single isomer, unassigned; (+)) [Tipifarnib, (+)-6-[amino(4-chlorophenyl)(1-methyl-1H-imidazol-5-yl)methyl]-4-(3-chlorophenyl)-1-methyl-2(1H)-quinolinone] here?
A: more than 3 fold

Q: What about the “potency for inhibition of proliferation, single agent” value (MV4-11 AML cells; 72-hour assay, cells that depend on FLT3 for growth (Tipifarnib: depending on the cell type)) of the same compound?
A: high nanomolar to high picomolar range

Q: And the “increase in potency of Tipifarnib” value (MV4-11 AML cells; with single sub-IC50 dose of FLT3 inhibitor Compound A, 50 nM)?
A: more than 3 fold

Q: What about the “effect on tumor growth” value (MV-4-11 tumor xenografts; 50 mg/kg po single agent, 16 days) of the same compound?
A: ineffective

Q: What about the overt toxicity (MV-4-11 tumor xenografts; 16-day treatment, either agent alone or in combination) of the same compound?
A: No overt toxicity

Q: And the “increase in potency of Tipifarnib” value (Baf3-FLT3 cells)?
A: more than 3 fold
